Assay results taken from ChEMBL document CHEMBL1909046, “DrugMatrix in vitro pharmacology data”.

Columns and labels:
[1] = molecular target: T1, C-C chemokine receptor type 4 (Homo sapiens, UniProt P51679); assay type: cell membranes, Membrane; conditions: chem-1; note: in other assays of this panel Not Active means under 50% inhibition at 10 µM
T1 sequence (P51679 whole entry): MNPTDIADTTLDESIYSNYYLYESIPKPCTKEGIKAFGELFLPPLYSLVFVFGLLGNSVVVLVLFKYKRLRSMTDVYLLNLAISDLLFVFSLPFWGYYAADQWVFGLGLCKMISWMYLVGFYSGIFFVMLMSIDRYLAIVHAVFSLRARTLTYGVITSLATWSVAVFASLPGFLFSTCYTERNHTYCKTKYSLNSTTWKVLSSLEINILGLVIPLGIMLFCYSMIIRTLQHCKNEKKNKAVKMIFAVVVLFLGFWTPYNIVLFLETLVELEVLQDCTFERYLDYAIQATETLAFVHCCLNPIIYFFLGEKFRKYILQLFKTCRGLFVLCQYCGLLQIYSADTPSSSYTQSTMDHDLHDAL

[2] = molecular target: T2, Neuropeptide Y receptor type 1 (Homo sapiens, UniProt P25929); assay type: cell membranes, Membrane; conditions: sk-n-mc; note: in other assays of this panel Not Active means under 50% inhibition at 10 µM
T2 sequence (P25929 whole entry): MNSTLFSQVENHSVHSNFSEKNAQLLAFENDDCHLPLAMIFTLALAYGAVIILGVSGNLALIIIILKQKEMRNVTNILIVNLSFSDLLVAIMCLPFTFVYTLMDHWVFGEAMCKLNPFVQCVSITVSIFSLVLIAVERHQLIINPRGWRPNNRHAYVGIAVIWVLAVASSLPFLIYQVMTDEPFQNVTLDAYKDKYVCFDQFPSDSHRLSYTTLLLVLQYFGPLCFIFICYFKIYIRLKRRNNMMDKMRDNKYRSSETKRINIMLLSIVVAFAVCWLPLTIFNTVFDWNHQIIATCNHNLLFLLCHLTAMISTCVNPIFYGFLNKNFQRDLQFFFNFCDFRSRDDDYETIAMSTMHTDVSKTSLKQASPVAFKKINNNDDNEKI

[3] = molecular target: Mitogen-activated protein kinase 14 (Homo sapiens, UniProt Q16539); design: species or system Escherichia coli;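 note: inhibition of p38alpha enzyme activity in a biochemical kinase assay, with myelin basic protein serving as substrate; in other assays of this panel Not Active means under 50% inhibition at 10 µM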
Sequence of Mitogen-activated protein kinase 14 (Q16539 whole entry): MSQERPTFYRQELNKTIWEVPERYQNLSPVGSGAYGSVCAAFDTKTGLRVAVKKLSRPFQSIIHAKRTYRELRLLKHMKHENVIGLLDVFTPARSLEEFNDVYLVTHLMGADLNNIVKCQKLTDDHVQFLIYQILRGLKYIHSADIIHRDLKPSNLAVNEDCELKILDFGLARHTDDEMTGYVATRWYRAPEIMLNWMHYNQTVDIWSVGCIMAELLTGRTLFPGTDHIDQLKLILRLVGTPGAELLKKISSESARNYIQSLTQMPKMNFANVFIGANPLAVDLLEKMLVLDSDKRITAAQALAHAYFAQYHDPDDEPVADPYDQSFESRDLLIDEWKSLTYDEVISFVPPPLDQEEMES

[4] = molecular target: Cytochrome P450 2D6 (Homo sapiens, UniProt P10635); conditions: bti-tn-5b1-4; note: in other assays of this panel Not Active means under 50% inhibition at 10 µM
Sequence of Cytochrome P450 2D6 (P10635 whole entry): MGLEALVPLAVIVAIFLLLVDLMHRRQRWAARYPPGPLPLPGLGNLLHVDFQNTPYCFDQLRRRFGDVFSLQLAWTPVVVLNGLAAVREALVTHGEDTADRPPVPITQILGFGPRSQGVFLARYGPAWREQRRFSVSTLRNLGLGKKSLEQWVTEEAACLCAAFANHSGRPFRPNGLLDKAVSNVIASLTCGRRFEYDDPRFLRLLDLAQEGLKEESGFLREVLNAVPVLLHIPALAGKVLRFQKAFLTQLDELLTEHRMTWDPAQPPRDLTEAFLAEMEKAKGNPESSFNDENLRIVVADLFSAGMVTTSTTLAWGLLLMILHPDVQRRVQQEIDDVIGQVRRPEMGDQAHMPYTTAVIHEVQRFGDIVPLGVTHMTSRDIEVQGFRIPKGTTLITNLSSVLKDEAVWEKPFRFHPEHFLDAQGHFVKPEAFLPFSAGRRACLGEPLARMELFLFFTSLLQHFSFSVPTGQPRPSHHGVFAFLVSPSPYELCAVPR

[5] = molecular target: T3, D(4) dopamine receptor (Homo sapiens, UniProt P21917); assay: DRUGMATRIX: Dopamine D4.2 radioligand binding (ligand: [3H] Spiperone); assay type: cell membranes, CHO-K1, Membrane; conditions: cho-k1; Not Active = under 50% inhibition at 10 µM
T3 sequence (P21917 whole entry): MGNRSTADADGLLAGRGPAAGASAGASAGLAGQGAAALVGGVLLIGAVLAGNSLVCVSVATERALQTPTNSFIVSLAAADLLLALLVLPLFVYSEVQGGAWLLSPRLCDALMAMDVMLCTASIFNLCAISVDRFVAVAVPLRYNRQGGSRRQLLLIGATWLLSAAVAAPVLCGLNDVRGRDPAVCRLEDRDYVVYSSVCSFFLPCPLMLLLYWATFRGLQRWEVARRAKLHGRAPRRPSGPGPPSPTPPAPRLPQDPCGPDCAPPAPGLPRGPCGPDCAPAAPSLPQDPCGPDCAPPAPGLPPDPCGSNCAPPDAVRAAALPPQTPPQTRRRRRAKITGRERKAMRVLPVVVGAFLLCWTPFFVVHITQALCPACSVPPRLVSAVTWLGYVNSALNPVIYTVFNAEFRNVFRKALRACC

[6] = DRUGMATRIX: Atrial Natriuretic Factor (ANF) radioligand binding (ligand: [125I] ANF (rat)); assay type: cell membranes, Cavia porcellus, Dunkin-Hartley, Adrenal gland, Membrane; conditions: Not Active = under 50% inhibition at 10 µM
[7] = molecular target: Mitogen-activated protein kinase 3 (Homo sapiens, UniProt P27361); assay: DRUGMATRIX: Protein Serine/Threonine Kinase, ERK1 enzyme inhibition (substrate: Myelin Basic Protein); design: species or system Escherichia coli; conditions: Not Active = under 50% inhibition at 10 µM
Sequence of Mitogen-activated protein kinase 3 (P27361 whole entry): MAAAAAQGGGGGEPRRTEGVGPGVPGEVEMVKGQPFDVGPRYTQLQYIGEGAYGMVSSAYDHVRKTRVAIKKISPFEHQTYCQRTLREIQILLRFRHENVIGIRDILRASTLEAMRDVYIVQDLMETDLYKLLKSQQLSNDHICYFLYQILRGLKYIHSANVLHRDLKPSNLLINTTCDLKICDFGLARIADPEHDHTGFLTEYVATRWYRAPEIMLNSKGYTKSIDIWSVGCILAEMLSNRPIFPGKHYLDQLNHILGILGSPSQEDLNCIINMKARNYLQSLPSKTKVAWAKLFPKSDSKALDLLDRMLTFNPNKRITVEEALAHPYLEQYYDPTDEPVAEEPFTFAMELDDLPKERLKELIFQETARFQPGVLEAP

[8] = molecular target: T4, Alpha-1A adrenergic receptor (Rattus norvegicus, UniProt P43140); assay: DRUGMATRIX: Alpha-1A adrenergic receptor radioligand binding (ligand: prazosin); assay type: cell membranes, Wistar, Submaxillary gland, Membrane; conditions: Not Active = under 50% inhibition at 10 µM; for Ki: read-out: Ki
T4 sequence (P43140 whole entry): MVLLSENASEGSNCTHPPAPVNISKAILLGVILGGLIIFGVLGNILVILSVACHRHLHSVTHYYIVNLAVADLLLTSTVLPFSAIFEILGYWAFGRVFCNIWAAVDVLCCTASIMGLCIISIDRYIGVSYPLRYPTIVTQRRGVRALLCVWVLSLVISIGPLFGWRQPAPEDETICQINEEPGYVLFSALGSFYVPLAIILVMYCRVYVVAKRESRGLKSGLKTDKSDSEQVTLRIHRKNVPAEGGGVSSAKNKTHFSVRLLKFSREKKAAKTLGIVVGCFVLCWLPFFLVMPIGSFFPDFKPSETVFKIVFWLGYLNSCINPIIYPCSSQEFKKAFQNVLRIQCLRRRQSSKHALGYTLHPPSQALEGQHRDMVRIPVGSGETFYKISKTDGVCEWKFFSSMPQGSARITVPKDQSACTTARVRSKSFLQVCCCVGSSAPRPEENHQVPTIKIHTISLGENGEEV

Structure (SMILES)	IC50 [1]	IC50 [2]	IC50 [3]	IC50 [4]	Ki [4]	IC50 [5]	IC50 [6]	Ki [6]	IC50 [7]	IC50 [8]	IC50 ([8]; read-out: IC50) [nM]	Ki [8] [nM]
Nc1nc(N)nc(NC2CC2)n1 [CYROMAZINE]	Not Active	Not Active	Not Active	Not Active	Not Active	Not Active	Not Active	Not Active	Not Active	Not Active		
C#C[C@]1(O)CC[C@H]2[C@@H]3CCC4=Cc5oncc5C[C@]4(C)[C@H]3CC[C@@]21C [DANAZOL]	Not Active	Not Active	Not Active	Not Active	Not Active	Not Active	Not Active	Not Active	Not Active	Not Active		
CCN[C@@H](C)Cc1cccc(C(F)(F)F)c1 [DEXFENFLURAMINE]	Not Active	Not Active	Not Active	Not Active	Not Active	Not Active	Not Active	Not Active	Not Active	Not Active		
C[C@H](C(=O)O)c1cccc(C(=O)c2ccccc2)c1 [DEXKETOPROFEN]	Not Active	Not Active	Not Active	Not Active	Not Active	Not Active	Not Active	Not Active	Not Active	Not Active		
CN1C[C@H](C(=O)N[C@]2(C)O[C@@]3(O)[C@@H]4CCCN4C(=O)[C@H](Cc4ccccc4)N3C2=O)C[C@@H]2c3cccc4[nH]cc(c34)C[C@H]21 [DIHYDROERGOTAMINE]	Not Active	Not Active	Not Active	Not Active	Not Active	Not Active	Not Active	Not Active	Not Active		5.03	2.03
CC(CCc1ccc(O)cc1)NCCc1ccc(O)c(O)c1 (configuration not stated) [DOBUTAMINE]	Not Active	Not Active	Not Active	Not Active	Not Active	Not Active	Not Active	Not Active	Not Active		110	45
CCn1cc(C(=O)O)c(=O)c2cc(F)c(N3CCNCC3)nc21 [ENOXACIN]	Not Active	Not Active	Not Active	Not Active	Not Active	Not Active	Not Active	Not Active	Not Active	Not Active		
CCC(=O)O[C@H]1[C@H](O[C@@H]2[C@@H](C)[C@H](O[C@H]3C[C@@](C)(OC)[C@@H](O)[C@H](C)O3)[C@@H](C)C(=O)O[C@H](CC)[C@@](C)(O)[C@H](O)[C@@H](C)C(=O)[C@H](C)C[C@@]2(C)O)O[C@H](C)C[C@@H]1N(C)C [ERYTHROMYCIN PROPIONATE]	Not Active	Not Active	Not Active	Not Active	Not Active	Not Active	Not Active	Not Active	Not Active	Not Active		
C=C(CC)C(=O)c1ccc(OCC(=O)O)c(Cl)c1Cl [ETHACRYNIC ACID]	Not Active	Not Active	Not Active	Not Active	Not Active	Not Active	Not Active	Not Active	Not Active	Not Active		
C#C[C@]1(O)CC[C@H]2[C@@H]3CCc4cc(O)ccc4[C@H]3CC[C@@]21C [ETHINYL ESTRADIOL]	Not Active	Not Active	Not Active	Not Active	Not Active	Not Active	Not Active	Not Active	Not Active	Not Active		
OCCO [ETHYLENE GLYCOL]	Not Active	Not Active	Not Active	Not Active	Not Active	Not Active	Not Active	Not Active	Not Active	Not Active		
CC(=O)OCC(CCn1cnc2cnc(N)nc21)COC(C)=O [FAMCICLOVIR]	Not Active	Not Active	Not Active	Not Active	Not Active	Not Active	Not Active	Not Active	Not Active	Not Active		
O=C(O)Cc1ccc(-c2ccccc2)cc1 [FELBINAC]	Not Active	Not Active	Not Active	Not Active	Not Active	Not Active	Not Active	Not Active	Not Active	Not Active		
CC(C(=O)O)c1ccc(-c2ccccc2)c(F)c1 (configuration not stated) [FLURBIPROFEN]	Not Active	Not Active	Not Active	Not Active	Not Active	Not Active	Not Active	Not Active	Not Active	Not Active		
NC[C@@H]1O[C@H](O[C@H]2[C@@H](O)[C@H](O[C@@H]3[C@@H](O)[C@H](N)C[C@H](N)[C@H]3O[C@H]3O[C@H](CN)[C@@H](O)[C@H](O)[C@H]3N)O[C@@H]2CO)[C@H](N)[C@@H](O)[C@@H]1O [FRAMYCETIN]	Not Active	Not Active	Not Active	Not Active	Not Active	Not Active	Not Active	Not Active	Not Active	Not Active		
C[C@H]([C@](O)(Cn1cncn1)c1ccc(F)cc1F)S(C)(=O)=O [GENACONAZOLE]	Not Active	Not Active	Not Active	Not Active	Not Active	Not Active	Not Active	Not Active	Not Active	Not Active		
Cc1c(F)c(N2CCNC(C)C2)cc2c1c(=O)c(C(=O)O)cn2C1CC1 (configuration not stated) [GREPAFLOXACIN]	Not Active	Not Active	Not Active	Not Active	Not Active	Not Active	Not Active	Not Active	Not Active	Not Active		
C[C@]12CCC(=O)C=C1CC[C@@H]1[C@@H]2[C@@H](O)C[C@@]2(C)[C@H]1CC[C@]2(O)C(=O)CO [HYDROCORTISONE]	Not Active	Not Active	Not Active	Not Active	Not Active	Not Active	Not Active	Not Active	Not Active	Not Active		
NC[C@H]1O[C@H](O[C@H]2[C@H](O)[C@@H](O[C@H]3O[C@H](CO)[C@@H](O)[C@H](N)[C@H]3O)[C@H](N)C[C@@H]2N)[C@H](O)[C@@H](O)[C@@H]1O [KANAMYCIN]	Not Active	Not Active	Not Active	Not Active	Not Active	Not Active	Not Active	Not Active	Not Active	Not Active		
